# Reference: patent publication US6448249B1, “Substituted 1,2,4-triazolo[3,4-A]phthalazine derivatives as GABAα5 ligands” (Merck Sharp & Dohme Ltd., priority 1998, dated 2002)
# Experiments:
# [1] = receptor occupancy at the minimum effective dose; assay type: in vivo; details: Rattus norvegicus; at dose of 0.3 mg/kg
# cognition = assay: rat water maze test (Morris); assay type: in vivo
# Excerpt: Cognition enhancement can be shown by testing the compound in the Morris watermaze as reported by McNamara and Skelton, Psychobiology, 21:101-108. The functional efficacy at the various receptor subtypes can be calculated using the method disclosed in WO-A-9625948.
# [2] = biological target: T1, human GABAA receptors containing the α5 subunit (Homo sapiens, UniProt P18507+P31644); assay: [3H]-flumazenil (Ro 15-1788) displacement binding assay; details: α5β3γ2 stably expressed in Ltk− cells; read-out: Ki value for displacement of [3H]Ro 15-1788 from the α5 subunit of the human GABAA receptor
# T1 construct: expressed in transfected cells; host or cells: Ltk- cells (mouse fibroblasts), stably expressing
# T1 sequence (P31644 32-462): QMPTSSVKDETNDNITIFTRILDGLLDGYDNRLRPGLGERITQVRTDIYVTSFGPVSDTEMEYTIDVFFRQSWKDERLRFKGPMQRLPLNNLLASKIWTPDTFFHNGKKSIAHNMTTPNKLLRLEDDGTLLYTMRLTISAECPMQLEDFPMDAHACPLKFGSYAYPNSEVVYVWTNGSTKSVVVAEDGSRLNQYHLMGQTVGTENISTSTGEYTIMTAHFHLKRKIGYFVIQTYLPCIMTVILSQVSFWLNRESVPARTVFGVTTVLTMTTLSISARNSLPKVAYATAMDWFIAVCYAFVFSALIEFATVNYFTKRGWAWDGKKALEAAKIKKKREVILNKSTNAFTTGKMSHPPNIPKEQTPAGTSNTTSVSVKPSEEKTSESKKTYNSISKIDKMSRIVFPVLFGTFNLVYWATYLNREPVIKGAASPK
# T1 sequence (P28472 26-473 partner): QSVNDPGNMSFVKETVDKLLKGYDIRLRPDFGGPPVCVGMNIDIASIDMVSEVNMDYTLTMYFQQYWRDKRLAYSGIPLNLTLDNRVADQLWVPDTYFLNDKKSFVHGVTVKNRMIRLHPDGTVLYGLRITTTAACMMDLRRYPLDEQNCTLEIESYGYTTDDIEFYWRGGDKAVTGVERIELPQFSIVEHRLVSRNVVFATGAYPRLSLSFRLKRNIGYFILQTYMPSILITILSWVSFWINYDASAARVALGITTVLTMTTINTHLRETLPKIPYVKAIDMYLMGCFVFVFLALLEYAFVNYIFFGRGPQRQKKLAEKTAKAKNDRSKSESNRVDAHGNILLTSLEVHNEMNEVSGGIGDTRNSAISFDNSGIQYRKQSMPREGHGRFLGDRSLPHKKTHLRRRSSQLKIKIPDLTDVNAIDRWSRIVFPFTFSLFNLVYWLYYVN
# T1 sequence (P18507 40-467 limits assumed): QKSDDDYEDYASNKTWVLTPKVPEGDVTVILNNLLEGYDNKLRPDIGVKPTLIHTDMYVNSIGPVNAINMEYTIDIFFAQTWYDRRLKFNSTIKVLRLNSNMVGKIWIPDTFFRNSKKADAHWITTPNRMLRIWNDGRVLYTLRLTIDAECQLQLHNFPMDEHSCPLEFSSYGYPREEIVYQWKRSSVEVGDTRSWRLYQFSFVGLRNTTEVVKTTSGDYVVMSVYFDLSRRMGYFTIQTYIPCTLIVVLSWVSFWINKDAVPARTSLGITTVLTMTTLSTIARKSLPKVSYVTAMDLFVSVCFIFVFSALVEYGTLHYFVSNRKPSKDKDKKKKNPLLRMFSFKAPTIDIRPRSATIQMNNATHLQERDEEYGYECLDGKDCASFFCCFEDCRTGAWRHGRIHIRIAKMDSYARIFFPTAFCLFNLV
# Method: Phosphate buffered saline (PBS).
# Assay buffer: 10 mM KH2PO4, 100 mM KCl, pH 7.4 at room temperature.
# [^3H]-Flumazenil (18 nM for α1β3γ2 cells; 18 nM for α2β3γ2 cells; 10 nM for α3β3γ2 cells; 10 nM for α5β3γ2 cells) in assay buffer.
# Flunitrazepam 100 μM in assay buffer.
# Cells resuspended in assay buffer (1 tray to 10 ml).
# Supernatant is removed from cells. PBS (approximately 20 ml) is added. The cells are scraped and placed in a 50 ml centrifuge tube. The procedure is repeated with a further 10 ml of PBS to ensure that most of the cells are removed. The cells are pelleted by centrifuging for 20 min at 3000 rpm in a benchtop centrifuge, and then frozen if desired. The pellets are resuspended in 10 ml of buffer per tray (25 cm×25 cm) of cells.
# Can be carried out in deep 96-well plates or in tubes. Each tube contains:
# 50 μl of [^3H]-flumazenil (final concentration for α1β3γ2: 1.8 nM; for α2β3γ2: 1.8 nM; for α3β3γ2: […]; for α5β3γ2: 1.0nM). […]
# Assays are incubated for 1 hour at […], then filtered using either a Tomtec or Brandel cell harvester onto GF/B filter followed by 3×3 ml washes with ice cold assay buffer. Filters are dried and counted by liquid scintillation counting. […] Binding parameters are determined by non-linear least squares regression analysis, from which the inhibition constant Ki can be calculated for the test compound.
melting point [°C],Ki [2] [µM],Structure (SMILES),receptor occupancy at 0.3 mg/kg [1] [%],cognition enhancement in the rat water maze test (cognition; demonstrated at 0.3 mg/kg and also at 3 mg/kg),minimum effective dose for cognition enhancement (cognition; rat water maze) [mg/kg]
247.5 to 249,,"Cc1cc(-c2nnc3c4ccccc4c(OCc4cccc(Br)n4)nn23)no1 [Reference Example 2, 6-(6-Bromopyridin-2-yl)methyloxy-3-(5-methylisoxazol-3-yl)-1,2,4-triazolo[3,4-a]phthalazine]",,,
,≤ 0.1,"Cc1cc(-c2nnc3c4ccccc4c(OCc4cn(C)nn4)nn23)no1 [compound of the present invention, 3-(5-methylisoxazol-3-yl)-6-(1-methyl-1,2,3-triazol-4-yl)methyloxy-1,2,4-triazolo[3,4-a]phthalazine]",40,enhance cognition,0.3
